{"source": "PubChem BioAssay (NCI)", "test_in_all_cases": "growth of human tumour cells (NCI), 48 h", "key": {"[1]": {"test_system": "786-0 renal"}, "[2]": {"test_system": "A498 renal"}, "[3]": {"test_system": "A549 NSCLC"}, "[4]": {"test_system": "ACHN renal"}, "[5]": {"test_system": "BT-549 breast"}, "[6]": {"test_system": "CAKI-1 renal"}, "[7]": {"test_system": "CCRF-CEM leukemia"}, "[8]": {"test_system": "COLO 205 colon"}, "[9]": {"test_system": "DU-145 prostate"}, "[10]": {"test_system": "HCC-2998 colon"}, "[11]": {"test_system": "HCT-116 colon"}, "[12]": {"test_system": "HCT-15 colon"}, "[13]": {"test_system": "HL-60(TB) leukemia"}, "[14]": {"test_system": "HOP-62 NSCLC"}, "[15]": {"test_system": "HOP-92 NSCLC"}, "[16]": {"test_system": "HS 578T breast"}, "[17]": {"test_system": "HT29 colon"}, "[18]": {"test_system": "IGROV1 ovarian"}, "[19]": {"test_system": "K-562 leukemia"}, "[20]": {"test_system": "KM12 colon"}, "[21]": {"test_system": "LOX IMVI melanoma"}, "[22]": {"test_system": "M14 melanoma"}, "[23]": {"test_system": "MALME-3M melanoma"}, "[24]": {"test_system": "MCF7 breast"}, "[25]": {"test_system": "MDA-MB-231 breast"}, "[26]": {"test_system": "MDA-MB-435"}, "[27]": {"test_system": "MOLT-4 leukemia"}, "[28]": {"test_system": "NCI-H226 lung"}, "[29]": {"test_system": "NCI-H460 lung"}, "[30]": {"test_system": "NCI-H522 lung"}, "[31]": {"test_system": "NCI/ADR-RES ovarian"}, "[32]": {"test_system": "OVCAR-3 ovarian"}, "[33]": {"test_system": "OVCAR-4 ovarian"}, "[34]": {"test_system": "OVCAR-5 ovarian"}, "[35]": {"test_system": "OVCAR-8 ovarian"}, "[36]": {"test_system": "RPMI-8226 leukemia"}, "[37]": {"test_system": "RXF 393 renal"}, "[38]": {"test_system": "SF-268 CNS"}, "[39]": {"test_system": "SF-295 CNS"}, "[40]": {"test_system": "SF-539 CNS"}, "[41]": {"test_system": "SK-MEL-2 melanoma"}, "[42]": {"test_system": "SK-MEL-28 melanoma"}, "[43]": {"test_system": "SK-MEL-5 melanoma"}, "[44]": {"test_system": "SK-OV-3 ovarian"}, "[45]": {"test_system": "SN12C renal"}, "[46]": {"test_system": "SNB-19 CNS"}, "[47]": {"test_system": "SNB-75 CNS"}, "[48]": {"test_system": "SR leukemia"}, "[49]": {"test_system": "SW-620 colon"}, "[50]": {"test_system": "T-47D breast"}, "[51]": {"test_system": "TK-10 renal"}, "[52]": {"test_system": "U251 CNS"}, "[53]": {"test_system": "UACC-257 melanoma"}, "[54]": {"test_system": "UO-31 renal"}}, "note": "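Method: 48-hour compound exposure of cells in 96-well plates, five concentrations, linear interpolation of endpoints. At the GI50, growth is halved. TGI is the concentration that stops growth completely.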", "data": [{"smiles": "CC#Cc1nc2ccccc2c(=O)[nH]1", "values": [{"measurement": "GI50", "setting": "[1]", "result": 4.23, "unit": "µM"}, {"measurement": "TGI", "setting": "[1]", "result": 14.7, "unit": "µM"}, {"measurement": "GI50", "setting": "[2]", "result": 1.38, "unit": "µM"}, {"measurement": "TGI", "setting": "[2]", "result": 2.74, "unit": "µM"}, {"measurement": "GI50", "setting": "[3]", "result": 4.9, "unit": "µM"}, {"measurement": "TGI", "setting": "[3]", "result": 34.2, "unit": "µM"}, {"measurement": "GI50", "setting": "[4]", "result": 3.65, "unit": "µM"}, {"measurement": "TGI", "setting": "[4]", "result": 23.3, "unit": "µM"}, {"measurement": "GI50", "setting": "[5]", "result": 2.34, "unit": "µM"}, {"measurement": "TGI", "setting": "[5]", "result": 5.18, "unit": "µM"}, {"measurement": "GI50", "setting": "[6]", "result": 6.15, "unit": "µM"}, {"measurement": "TGI", "setting": "[6]", "result": 28.3, "unit": "µM"}, {"measurement": "GI50", "setting": "[7]", "result": 2.62, "unit": "µM"}, {"measurement": "TGI", "setting": "[7]", "result": 25.4, "unit": "µM"}, {"measurement": "GI50", "setting": "[8]", "result": 2.03, "unit": "µM"}, {"measurement": "TGI", "setting": "[8]", "result": 3.7, "unit": "µM"}, {"measurement": "GI50", "setting": "[9]", "result": 4.88, "unit": "µM"}, {"measurement": "TGI", "setting": "[9]", "result": "> 100", "unit": "µM"}, {"measurement": "GI50", "setting": "[10]", "result": 1.99, "unit": "µM"}, {"measurement": "TGI", "setting": "[10]", "result": 4.17, "unit": "µM"}, {"measurement": "GI50", "setting": "[11]", "result": 3.24, "unit": "µM"}, {"measurement": "TGI", "setting": "[11]", "result": 13, "unit": "µM"}, {"measurement": "GI50", "setting": "[12]", "result": 2.73, "unit": "µM"}, {"measurement": "TGI", "setting": "[12]", "result": 8.91, "unit": "µM"}, {"measurement": "GI50", "setting": "[13]", "result": 3.11, "unit": "µM"}, {"measurement": "TGI", "setting": "[13]", "result": 9.62, "unit": "µM"}, {"measurement": "GI50", "setting": "[14]", "result": 3.18, "unit": "µM"}, {"measurement": "TGI", "setting": "[14]", "result": 9.43, "unit": "µM"}, {"measurement": "GI50", "setting": "[15]", "result": 2.3, "unit": "µM"}, {"measurement": "TGI", "setting": "[15]", "result": 7.74, "unit": "µM"}, {"measurement": "GI50", "setting": "[16]", "result": 4.92, "unit": "µM"}, {"measurement": "TGI", "setting": "[16]", "result": "> 100", "unit": "µM"}, {"measurement": "GI50", "setting": "[17]", "result": 3.79, "unit": "µM"}, {"measurement": "TGI", "setting": "[17]", "result": 13.9, "unit": "µM"}, {"measurement": "GI50", "setting": "[18]", "result": 2.51, "unit": "µM"}, {"measurement": "TGI", "setting": "[18]", "result": 6.97, "unit": "µM"}, {"measurement": "GI50", "setting": "[19]", "result": 3.93, "unit": "µM"}, {"measurement": "TGI", "setting": "[19]", "result": "> 100", "unit": "µM"}, {"measurement": "GI50", "setting": "[20]", "result": 2.68, "unit": "µM"}, {"measurement": "TGI", "setting": "[20]", "result": 6.58, "unit": "µM"}, {"measurement": "GI50", "setting": "[21]", "result": 1.82, "unit": "µM"}, {"measurement": "TGI", "setting": "[21]", "result": 3.43, "unit": "µM"}, {"measurement": "GI50", "setting": "[22]", "result": 3.28, "unit": "µM"}, {"measurement": "TGI", "setting": "[22]", "result": 9.71, "unit": "µM"}, {"measurement": "GI50", "setting": "[23]", "result": 4.21, "unit": "µM"}, {"measurement": "TGI", "setting": "[23]", "result": 15, "unit": "µM"}, {"measurement": "GI50", "setting": "[24]", "result": 3.07, "unit": "µM"}, {"measurement": "TGI", "setting": "[24]", "result": "> 100", "unit": "µM"}, {"measurement": "GI50", "setting": "[25]", "result": 2.1, "unit": "µM"}, {"measurement": "TGI", "setting": "[25]", "result": 4.71, "unit": "µM"}, {"measurement": "GI50", "setting": "[26]", "result": 2.04, "unit": "µM"}, {"measurement": "TGI", "setting": "[26]", "result": 5.35, "unit": "µM"}, {"measurement": "GI50", "setting": "[27]", "result": 2.9, "unit": "µM"}, {"measurement": "TGI", "setting": "[27]", "result": 8.51, "unit": "µM"}, {"measurement": "GI50", "setting": "[28]", "result": 2.3, "unit": "µM"}, {"measurement": "TGI", "setting": "[28]", "result": 5.84, "unit": "µM"}, {"measurement": "GI50", "setting": "[29]", "result": 3.89, "unit": "µM"}, {"measurement": "TGI", "setting": "[29]", "result": 20.2, "unit": "µM"}, {"measurement": "GI50", "setting": "[30]", "result": 5.27, "unit": "µM"}, {"measurement": "TGI", "setting": "[30]", "result": 16.7, "unit": "µM"}, {"measurement": "GI50", "setting": "[31]", "result": 3.89, "unit": "µM"}, {"measurement": "TGI", "setting": "[31]", "result": 63.9, "unit": "µM"}, {"measurement": "GI50", "setting": "[32]", "result": 2.11, "unit": "µM"}, {"measurement": "TGI", "setting": "[32]", "result": 4.16, "unit": "µM"}, {"measurement": "GI50", "setting": "[33]", "result": 4.15, "unit": "µM"}, {"measurement": "TGI", "setting": "[33]", "result": 27.5, "unit": "µM"}, {"measurement": "GI50", "setting": "[34]", "result": 6.1, "unit": "µM"}, {"measurement": "TGI", "setting": "[34]", "result": 27.1, "unit": "µM"}, {"measurement": "GI50", "setting": "[35]", "result": 4.89, "unit": "µM"}, {"measurement": "TGI", "setting": "[35]", "result": 64.9, "unit": "µM"}, {"measurement": "GI50", "setting": "[36]", "result": 1.52, "unit": "µM"}, {"measurement": "TGI", "setting": "[36]", "result": 5.73, "unit": "µM"}, {"measurement": "GI50", "setting": "[37]", "result": 1.57, "unit": "µM"}, {"measurement": "TGI", "setting": "[37]", "result": 3.27, "unit": "µM"}, {"measurement": "GI50", "setting": "[38]", "result": 3.17, "unit": "µM"}, {"measurement": "TGI", "setting": "[38]", "result": 11.1, "unit": "µM"}, {"measurement": "GI50", "setting": "[39]", "result": 4.1, "unit": "µM"}, {"measurement": "TGI", "setting": "[39]", "result": 20.6, "unit": "µM"}, {"measurement": "GI50", "setting": "[40]", "result": 2.76, "unit": "µM"}, {"measurement": "TGI", "setting": "[40]", "result": 9.14, "unit": "µM"}, {"measurement": "GI50", "setting": "[41]", "result": 3.2, "unit": "µM"}, {"measurement": "TGI", "setting": "[41]", "result": 7.21, "unit": "µM"}, {"measurement": "GI50", "setting": "[42]", "result": 4.55, "unit": "µM"}, {"measurement": "TGI", "setting": "[42]", "result": 33.9, "unit": "µM"}, {"measurement": "GI50", "setting": "[43]", "result": 1.65, "unit": "µM"}, {"measurement": "TGI", "setting": "[43]", "result": 3.32, "unit": "µM"}, {"measurement": "GI50", "setting": "[44]", "result": 41.7, "unit": "µM"}, {"measurement": "TGI", "setting": "[44]", "result": "> 100", "unit": "µM"}, {"measurement": "GI50", "setting": "[45]", "result": 3.02, "unit": "µM"}, {"measurement": "TGI", "setting": "[45]", "result": 9.8, "unit": "µM"}, {"measurement": "GI50", "setting": "[46]", "result": 13.3, "unit": "µM"}, {"measurement": "TGI", "setting": "[46]", "result": 52.3, "unit": "µM"}, {"measurement": "GI50", "setting": "[47]", "result": 2.09, "unit": "µM"}, {"measurement": "TGI", "setting": "[47]", "result": 6.43, "unit": "µM"}, {"measurement": "GI50", "setting": "[48]", "result": 2.38, "unit": "µM"}, {"measurement": "TGI", "setting": "[48]", "result": 19, "unit": "µM"}, {"measurement": "GI50", "setting": "[49]", "result": 3.7, "unit": "µM"}, {"measurement": "TGI", "setting": "[49]", "result": 23, "unit": "µM"}, {"measurement": "GI50", "setting": "[50]", "result": 5.71, "unit": "µM"}, {"measurement": "TGI", "setting": "[50]", "result": 23, "unit": "µM"}, {"measurement": "GI50", "setting": "[51]", "result": 5.06, "unit": "µM"}, {"measurement": "TGI", "setting": "[51]", "result": 26.3, "unit": "µM"}, {"measurement": "GI50", "setting": "[52]", "result": 3.42, "unit": "µM"}, {"measurement": "TGI", "setting": "[52]", "result": 12.8, "unit": "µM"}, {"measurement": "GI50", "setting": "[53]", "result": 3.4, "unit": "µM"}, {"measurement": "TGI", "setting": "[53]", "result": 15.4, "unit": "µM"}, {"measurement": "GI50", "setting": "[54]", "result": 3.18, "unit": "µM"}, {"measurement": "TGI", "setting": "[54]", "result": 8.87, "unit": "µM"}]}]}
